Results as given in ChEMBL document CHEMBL1201862, “PubChem BioAssay data set” (2004).
Activity calls are given as the source filed them. Cut-off read from the data, not from the text of the source: actives have a measured IC50 and inactives only a lower limit.

Target: Envelope glycoprotein gp160 (Human immunodeficiency virus 1, UniProt Q6QLK5)
Experiment: cell-free HIV fusion peptide-binding blockers – biochemical, uHTS, fluorescence dequenching, […] (AID 1986)

Chain of Envelope glycoprotein gp160 (Q6QLK5 whole entry, the tested form may be a part): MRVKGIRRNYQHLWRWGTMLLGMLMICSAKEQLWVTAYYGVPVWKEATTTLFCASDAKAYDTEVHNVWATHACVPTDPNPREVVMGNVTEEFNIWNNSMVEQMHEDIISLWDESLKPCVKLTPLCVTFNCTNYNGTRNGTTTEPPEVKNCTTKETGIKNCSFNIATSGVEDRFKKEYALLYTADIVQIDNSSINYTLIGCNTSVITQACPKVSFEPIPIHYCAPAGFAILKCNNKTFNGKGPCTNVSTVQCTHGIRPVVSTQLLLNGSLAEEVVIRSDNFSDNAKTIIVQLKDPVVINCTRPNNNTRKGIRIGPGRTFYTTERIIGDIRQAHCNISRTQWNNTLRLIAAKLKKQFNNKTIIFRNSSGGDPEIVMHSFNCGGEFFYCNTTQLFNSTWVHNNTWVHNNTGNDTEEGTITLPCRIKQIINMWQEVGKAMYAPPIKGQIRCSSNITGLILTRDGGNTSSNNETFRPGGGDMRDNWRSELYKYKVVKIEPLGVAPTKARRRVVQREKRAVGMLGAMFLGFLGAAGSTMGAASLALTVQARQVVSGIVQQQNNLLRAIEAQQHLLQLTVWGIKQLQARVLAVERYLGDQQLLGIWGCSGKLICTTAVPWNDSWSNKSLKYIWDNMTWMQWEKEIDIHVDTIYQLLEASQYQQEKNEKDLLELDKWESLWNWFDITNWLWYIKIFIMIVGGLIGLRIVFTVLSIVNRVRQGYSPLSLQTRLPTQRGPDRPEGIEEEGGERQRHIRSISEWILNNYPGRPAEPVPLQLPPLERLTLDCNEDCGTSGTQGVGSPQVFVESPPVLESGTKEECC

In the case of `Cc1cc(Cl)ccc1OC(C)C(=O)Nc1ccc(S(=O)(=O)Nc2cnc3ccccc3n2)cc1` (stereo unspecified), the IC50 is reported as 21.3 µM (active).
